From patent publication US20200031811A1, “SUBSTITUTED MONO- AND POLYAZANAPHTHALENE DERIVATIVES AND THEIR USE” (Basilea Pharmaceutica International AG, priority 2015, published 2020) come the findings set out here.

Structures are written as SMILES.

One test concerns the target T1, MNK1 (Homo sapiens, UniProt Q9BUB5).
T1 construct: purchased Life Technologies or Carna Biosciences PV6023 or 02-145; host or cells: baculovirus infected insect cells
Nature of the test: MNK inhibition assay (Z-Lyte kinase assay, Ser/Thr 7 peptide). As to conditions: for IC50: recombinant GST-MNK1, 3 hours at 31° C.; for inhibition at 1 µM: read-out: Inhibition of MNK1 activity at indicated concentration. The class given is biochemical. The method in brief: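 Recombinant GST-MNK1 from baculovirus-infected insect cells, Z-Lyte Ser/Thr 7 peptide, enzyme set for ~30% phosphorylation in buffer-only wells; 3 hours at 31° C. Compounds at 50–10000 nM (potent ones down to 0.5 nM), at least duplicate. IC50 from % substrate phosphorylation versus buffer-only wells, fluorescence read-out.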

For test [1], the system named is human pancreatic cancer cell line MiaPaCa2 (ATCC CRL-1420). Put plainly: Cell growth assay (CellTiterGlo, 72 hours). The class given is cell-based. As to conditions: for IC50: MIA PaCa-2, MiaPaCa2 cells, 72 hours, read-out: IC50 MiaPaCa; for inhibition at 100 µM: MIA PaCa-2, at 100 μM, read-out: Inhibition of MiaPaCa growth at indicated concentration. The essentials: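 MiaPaCa2 cells (10^3/well) seeded in supplemented DMEM overnight, then exposed in quadruplicate to compound at 100 down to 0.1 μM for 72 h at 37° C. Growth read by CellTiterGlo luminescence, medium-only background subtracted, normalised to untreated cells; IC50 = concentration reducing growth to 50%.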

T1 sequence (Q9BUB5 whole entry): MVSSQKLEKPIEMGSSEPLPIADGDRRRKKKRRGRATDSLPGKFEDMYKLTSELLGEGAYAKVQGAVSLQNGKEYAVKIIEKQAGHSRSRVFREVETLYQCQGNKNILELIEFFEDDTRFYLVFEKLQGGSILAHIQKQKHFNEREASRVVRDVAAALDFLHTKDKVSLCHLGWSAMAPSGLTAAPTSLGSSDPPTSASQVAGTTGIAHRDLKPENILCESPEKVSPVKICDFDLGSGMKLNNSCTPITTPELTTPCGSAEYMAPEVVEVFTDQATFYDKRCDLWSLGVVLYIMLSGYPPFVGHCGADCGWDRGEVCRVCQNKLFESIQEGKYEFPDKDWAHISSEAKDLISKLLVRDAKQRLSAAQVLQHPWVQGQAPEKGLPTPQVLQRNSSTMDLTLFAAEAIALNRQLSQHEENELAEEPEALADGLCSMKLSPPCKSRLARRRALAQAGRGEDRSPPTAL

Regarding `COc1cnccc1NCc1ccc2cncc(-c3cc4ccccc4o3)c2c1` [Example 72], the IC50 on MNK1 is 12 nM; in test [1], 5080 nM.

Regarding `Nc1cccc(NCc2ccc3cncc(-c4cc5ccccc5o4)c3c2)c1` [Example 48], the IC50 came out at 1150 nM at MNK1 and 25000 nM in test [1].

Turning to `CC(=O)c1cccc(-c2cncc3ccc(CN4CCC(N)CC4)cc23)c1` [Example 186], the half-maximal inhibitory concentration (IC50) on MNK1 amounted to 1240 nM; in test [1] it was 24000 nM.

Take `c1ccc2oc(-c3cncc4ccc(Cn5ccc6ccncc65)cc34)cc2c1` [Example 191, 4-(Benzofuran-2-yl)-6-(pryrrolo[2,3-c]pyridin-1-ylmethyl)isoquinoline]: the IC50 at MNK1 was found to be 437 nM; in test [1] it was 19000 nM.

Consider `COc1cc(N[C@H]2CC[C@H](N)CC2)cc2c(-c3cc4ccccc4o3)cncc12` [Example 143, N4-[4-(benzofuran-2-yl)-8-methoxy-6-isoquinolyl]cyclohexane-1,4-diamine], for which the figures for the IC50 (at MNK1; in test [1]) were 474 nM and 1960 nM, respectively.

With `c1coc(-c2cncc3ccc(CNc4ccnc5ccccc45)cc23)c1` [Example 208], the values for the half-maximal inhibitory concentration (IC50) (on MNK1; in test [1]) were 56 nM and 8170 nM, respectively.

For the compound `Nc1ncc(-c2cc3ccccc3o2)c2cc(CN3CCC(N)CC3)cc(Cl)c12` [Example 256, 6-[(4-Amino-1-piperidyl)methyl]-4-(benzofuran-2-yl)-8-chloro-isoquinolin-1-amine], the half-inhibitory concentration (IC50) turned out to be 216 nM on MNK1 and 1220 nM in test [1].

As for `Nc1ncc(-c2ccco2)c2cc(CN3CCC(N)CC3)cc(Cl)c12` [Example 286], the values for the 50% inhibitory concentration (IC50) (on MNK1; in test [1]) were 27 nM and 1640 nM, respectively.

As to `c1ccc2oc(-c3cncc4ccc(CNc5ccncn5)cc34)cc2c1` [Example 128], the results for the 50% inhibitory concentration (IC50) (at MNK1; in test [1]) were 84 nM and 15800 nM, respectively.

Take `NC1CCN(Cc2ccc3cncc(-c4ccc(NC(=O)Nc5ccncc5)cc4)c3c2)CC1` [Example 115]: at MNK1, the IC50 worked out at 490 nM. Further, the inhibition at 100 µM in test [1] was 52%.

On to `Nc1cc[n+](Cc2ccc3cncc(-c4cc5ccccc5o4)c3c2)cc1O` [Example 59], for which the results for the 50% inhibitory concentration (IC50) (on MNK1; in test [1]) were 90 nM and 47000 nM, respectively.

`N[C@H]1CC[C@H](Oc2cc(Cl)c3cncc(-c4ccccc4)c3c2)CC1` [Example 311]: the IC50 turned out to be 105 nM at MNK1 and 5760 nM in test [1].

For `Oc1ccc(-c2cncc3ccc(CN4CCC(O)CC4)cc23)cc1` [Example 23], the half-inhibitory concentration (IC50) at MNK1 is 2360 nM; in test [1], 30600 nM.

Regarding `NC1CCN(C(=O)c2ccc3cncc(-c4ccc(O)cc4)c3c2)CC1` [Example 28, (4-Amino-1-piperidyl)-[4-(4-hydroxyphenyl)-6-isoquinolyl]methanone], the half-maximal inhibitory concentration (IC50) at MNK1 is 353 nM; in test [1], 47600 nM.

Take `NCCCOCc1ccc2cncc(-c3ccc(Cl)c(Cl)c3)c2c1` [Example 107]: the half-inhibitory concentration (IC50) at MNK1 came out at 1120 nM; in test [1], 21000 nM.

`CN(Cc1ccc2cncc(-c3cc4ccccc4o3)c2c1)c1ccncc1` [Example 67]: the figures for the IC50 (at MNK1; in test [1]) were 57 nM and 5580 nM, respectively.

On to `NCCCOCc1ccc2cncc(-c3ccc(NC(=O)Nc4ccccc4)cc3)c2c1` [Example 108, 1-[4-[6-(3-Aminopropoxymethyl)-4-isoquinolyl]phenyl]-3-phenyl-urea], for which the IC50 came out at 3510 nM on MNK1 and 15000 nM in test [1].

Regarding `N[C@@H]1CCN(Cc2ccc3cncc(-c4cc5ccccc5o4)c3c2)C[C@H]1F` [Example 205], the IC50 at MNK1 was determined as 2150 nM; in test [1], 4520 nM.

With `CC(=O)Nc1ccc(-c2cncc3ccc(CN4CCC(N)CC4)cc23)cc1` [Example 18, N-[4-[6-[(4-Amino-1-piperidyl)methyl]-4-isoquinolyl]phenyl]acetamide], the IC50 on MNK1 stood at 459 nM; in test [1] it was 30400 nM.

For the compound `NCCOc1ccc2cncc(-c3cc4ccccc4o3)c2c1` [Example 102, 2-[[4-(Benzofuran-2-yl)-6-isoquinolyl]oxy]ethanamine], the concentration for half-maximal inhibition (IC50) on MNK1 stood at 1050 nM; in test [1], 7000 nM.

With `COc1cc(CN2CCC(N)CC2)cc2c(-c3cccs3)cnc(N)c12` [Example 298], the IC50 turned out to be 282 nM at MNK1 and 3580 nM in test [1].

`N#Cc1cccc(-c2cncc3ccc(CN4CCC(N)CC4)cc23)c1` [Example 5]: the inhibition at 1 µM at MNK1 is 39%. In test [1], the half-maximal inhibitory concentration (IC50) was found to be 32600 nM.

With `NC1CCN(Cc2ccc3cncc(-c4cc5ncccc5o4)c3c2)CC1` [Example 276], the concentration for half-maximal inhibition (IC50) on MNK1 was 161 nM; in test [1], 15500 nM.

As to `NC1CCN(Cc2ccc3cncc(-c4ccc5[nH]ccc5c4)c3c2)CC1` [Example 168], the results for the IC50 (on MNK1; in test [1]) were 760 nM and 12400 nM, respectively.

For the compound `N[C@H]1CC[C@H](NC(=O)c2ccc3cncc(-c4cc5ccccc5o4)c3c2)CC1` [Example 160, Trans-N-(4-aminocyclohexyl)-4-(benzofuran-2-yl)isoquinoline-6-carboxamide], the IC50 worked out at 284 nM on MNK1 and 12200 nM in test [1].

`NC1CCN(Cc2ccc3cncc(-c4ccccc4)c3n2)CC1` [Example 299, 1-[(8-Phenyl-1,6-naphthyridin-2-yl)methyl]piperidin-4-amine]: the IC50 at MNK1 was found to be 237 nM. For the same compound, the inhibition at 100 µM in test [1] was determined as 85%.

For the compound `NC1CCN(Cc2ccc3cncc(-c4cc5cc(Cl)ccc5o4)c3c2)CC1` [Example 188], the 50% inhibitory concentration (IC50) at MNK1 was 340 nM; in test [1] it was 5630 nM.

Turning to `NCCCNC(=O)c1ccc2cncc(-c3cc4ccccc4o3)c2n1` [Example 103, N-(3-aminopropyl)-8-(benzofuran-2-yl)-1,6-naphthyridine-2-carboxamide], the 50% inhibitory concentration (IC50) was 88 nM at MNK1 and 4120 nM in test [1].

`Nc1ncc(-c2ccc(F)c(F)c2)c2cc(CN3CCC(N)CC3)cc(Cl)c12` [Example 285]: the figures for the IC50 (at MNK1; in test [1]) were 150 nM and 6770 nM, respectively.

With `NCc1ccc(-c2cncc3ccc(CN4CCC(N)CC4)cc23)cc1` [Example 183], the IC50 at MNK1 amounted to 306 nM; in test [1] it was 8640 nM.

In the case of `NC1CCN(Cc2ccc3cncc(-c4cccc(CO)c4)c3c2)CC1` [Example 182], the half-inhibitory concentration (IC50) is 1180 nM on MNK1 and 38000 nM in test [1].

Consider `c1ccc2oc(-c3cncc4ccc(CN5CCCCC5)nc34)cc2c1` [Example 301], for which the concentration for half-maximal inhibition (IC50) at MNK1 stood at 1720 nM; in test [1], 51700 nM.

Turning to `Nc1ncc2ccc(CNc3ccnc4ccccc34)cc2c1-c1cc2ccccc2o1` [Example 261, 4-(Benzofuran-2-yl)-6-[(4-quinolylamino)methyl]isoquinolin-3-amine], the results for the concentration for half-maximal inhibition (IC50) (at MNK1; in test [1]) were 54 nM and 3990 nM, respectively.

`Cc1ccc(-c2cncc3ccc(CN4CCNCC4)cc23)o1` [Example 226]: the figures for the concentration for half-maximal inhibition (IC50) (at MNK1; in test [1]) were 229 nM and 20400 nM, respectively.

In the case of `NCCCOCc1ccc2cncc(-c3ccc(Cl)cc3)c2c1` [Example 106], the inhibition at 1 µM on MNK1 stood at 34%. In addition, in test [1], the IC50 worked out at 20700 nM.

For the compound `Nc1ccc(Nc2ccc3cncc(-c4cc5ccccc5o4)c3c2)cc1` [Example 132, N1-[4-(Benzofuran-2-yl)-6-isoquinolyl]benzene-1,4-diamine], the IC50 at MNK1 was found to be 3120 nM. Besides, the inhibition at 100 µM in test [1] came to 53%.

`Nc1ccc(NCc2ccc3cncc(-c4cc5ccccc5o4)c3c2)cn1` [Example 129]: the half-inhibitory concentration (IC50) on MNK1 was 143 nM; in test [1], 23100 nM.
